In US10456407B2, “Combination therapy for treating cancer” (Epizyme, Inc., priority 2015, dated 2019):
“And” between values parts separate entries of the source, which are not always exact repeats. Equal entries are not always repeated.

Test system: DOHH2 cells
Test: RT2 Glucocorticoid signaling PCR array, DOHH2 cell line (Table 4b)
Format: cell-based
Details: DOHH2, 4 days

CCN(c1cc(-c2ccc(CN3CCOCC3)cc2)cc(C(=O)NCc2c(C)cc(C)[nH]c2=O)c1C)C1CCOCC1 [Compound 44]
HNRPLL ΔCT (B2M) (normalized to B2M): 10.575 | HPRT1 ΔCT (B2M) (normalized to B2M): 2.985 | IL1RN ΔCT (B2M) (normalized to B2M): 13.695 | IL6R ΔCT (B2M) (normalized to B2M): 13.386 | IL6 ΔCT (B2M) (normalized to B2M): 15.874 | KLF9 ΔCT (B2M) (normalized to B2M): 9.863 | KLF13 ΔCT (B2M) (normalized to B2M): 3.844 | LOX ΔCT (B2M) (normalized to B2M): 14.421 | MERTK ΔCT (B2M) (normalized to B2M): 13.880 | NFKBIA ΔCT (B2M) (normalized to B2M): 4.049 | NR3C1 ΔCT (B2M) (normalized to B2M): 3.854 | PDCD7 ΔCT (B2M) (normalized to B2M): 4.841 | PDGFRB ΔCT (B2M) (normalized to B2M): 16.617 | PDP1 ΔCT (B2M) (normalized to B2M): 6.599 | PER1 ΔCT (B2M) (normalized to B2M): 6.141 | PER2 ΔCT (B2M) (normalized to B2M): 5.259 | PIK3R1 ΔCT (B2M) (normalized to B2M): 5.136 | PLEKHF1 ΔCT (B2M) (normalized to B2M): 10.370 | POU2F1 ΔCT (B2M) (normalized to B2M): 5.427 | POU2F2 ΔCT (B2M) (normalized to B2M): 3.591 | RASA3 ΔCT (B2M) (normalized to B2M): 9.060 | RGS2 ΔCT (B2M) (normalized to B2M): 6.285 | RHOB ΔCT (B2M) (normalized to B2M): 12.169 | RPLP0 ΔCT (B2M) (normalized to B2M): −3.641 | SESN1 ΔCT (B2M) (normalized to B2M): 5.272 | SGK1 ΔCT (B2M) (normalized to B2M): 9.245 | SLC10A6 ΔCT (B2M) (normalized to B2M): 17.859 | SLC19A2 ΔCT (B2M) (normalized to B2M): 6.283 | SLC22A5 ΔCT (B2M) (normalized to B2M): 9.416 | SNTA1 ΔCT (B2M) (normalized to B2M): 5.974 | SPHK1 ΔCT (B2M) (normalized to B2M): 10.287 | SPSB1 ΔCT (B2M) (normalized to B2M): 8.076 | STAT5A ΔCT (B2M) (normalized to B2M): 5.195 | STAT5B ΔCT (B2M) (normalized to B2M): 3.752 | TBL1XR1 ΔCT (B2M) (normalized to B2M): 2.415 | TNF ΔCT (B2M) (normalized to B2M): 13.273 | TNFAIP3 ΔCT (B2M) (normalized to B2M): 8.944 | TSC22D3 ΔCT (B2M) (normalized to B2M): 6.176 | USP2 ΔCT (B2M) (normalized to B2M): 5.108 | USPS4 ΔCT (B2M) (normalized to B2M): 7.316 | VDR ΔCT (B2M) (normalized to B2M): 7.850 | VLDLR ΔCT (B2M) (normalized to B2M): 8.656 | ZFP36 ΔCT (B2M) (normalized to B2M): 5.404 | ZHX3 ΔCT (B2M) (normalized to B2M): 6.035 | ZNF281 ΔCT (B2M) (normalized to B2M): 4.965 | RTC ΔCT (B2M) (normalized to B2M, array control, three lines): 2.769 and 2.834 and 2.808 | ADARB1 ΔΔCT (vs DMSO): 0.046 | AFF1 ΔΔCT (vs DMSO): −0.363 | AK2 ΔΔCT (vs DMSO): 0.272 | AMPD3 ΔΔCT (vs DMSO): 0.178 | ANGPTL4 ΔΔCT (vs DMSO): 0.119 | ANXA4 ΔΔCT (vs DMSO): −0.111 | ARID68 ΔΔCT (vs DMSO): 0.334 | ASPH ΔΔCT (vs DMSO): 0.286 | ATF4 ΔΔCT (vs DMSO): 0.467 | BCL6 ΔΔCT (vs DMSO): 0.227 | BMPER ΔΔCT (vs DMSO): 1.488 | CEBPA ΔΔCT (vs DMSO): −3.545 | CEBPB ΔΔCT (vs DMSO): 0.447 | COL4A2 ΔΔCT (vs DMSO): 2.238 | CREB1 ΔΔCT (vs DMSO): 0.249 | CREB3L4 ΔΔCT (vs DMSO): 0.138 | CREB3 ΔΔCT (vs DMSO): 0.344 | CTGF ΔΔCT (vs DMSO): −0.518 | CYB561 ΔΔCT (vs DMSO): −5.412 | DDIT4 ΔΔCT (vs DMSO): 0.007 | DUSP1 ΔΔCT (vs DMSO): −0.039 | EDN1 ΔΔCT (vs DMSO): 1.460 | EHD3 ΔΔCT (vs DMSO): −3.030 | ERRFI1 ΔΔCT (vs DMSO): −1.929 | FK8PS ΔΔCT (vs DMSO): −3.032 | FOSL2 ΔΔCT (vs DMSO): −1.462 | GDPD1 ΔΔCT (vs DMSO): 0.471 | GHRHR ΔΔCT (vs DMSO): 2.393 | GLUL ΔΔCT (vs DMSO): 0.971 | GOT1 ΔΔCT (vs DMSO): 0.132 | H6PD ΔΔCT (vs DMSO): 0.093 | HNRPLL ΔΔCT (vs DMSO): −0.740 | KLF9 ΔΔCT (vs DMSO): 0.181 | KLF13 ΔΔCT (vs DMSO): −0.098 | LOX ΔΔCT (vs DMSO): −0.132 | MERTK ΔΔCT (vs DMSO): −0.108 | NFKBIA ΔΔCT (vs DMSO): 0.167 | NR3C1 ΔΔCT (vs DMSO): 0.261 | PDCD7 ΔΔCT (vs DMSO): 0.194 | PDP1 ΔΔCT (vs DMSO): −0.255 | PER1 ΔΔCT (vs DMSO): 0.206 | PER2 ΔΔCT (vs DMSO): −0.374 | PIK3R1 ΔΔCT (vs DMSO): −0.032 | PLEKHF1 ΔΔCT (vs DMSO): −0.507 | POU2F1 ΔΔCT (vs DMSO): 0.058 | POU2F2 ΔΔCT (vs DMSO): 0.131 | RASA3 ΔΔCT (vs DMSO): 0.917 | RGS2 ΔΔCT (vs DMSO): 0.504 | RHOB ΔΔCT (vs DMSO): −1.483 | SESN1 ΔΔCT (vs DMSO): 0.055 | SGK1 ΔΔCT (vs DMSO): 0.621 | SLC19A2 ΔΔCT (vs DMSO): −0.308 | SLC22A5 ΔΔCT (vs DMSO): 0.033 | SNTA1 ΔΔCT (vs DMSO): 0.399 | SPHK1 ΔΔCT (vs DMSO): −1.381 | SPSB1 ΔΔCT (vs DMSO): 0.025 | STAT5A ΔΔCT (vs DMSO): −0.033 | STAT5B ΔΔCT (vs DMSO): 0.258 | TBL1XR1 ΔΔCT (vs DMSO): 0.030 | TNF ΔΔCT (vs DMSO): 0.954 | TNFAIP3 ΔΔCT (vs DMSO): −0.307 | TSC22D3 ΔΔCT (vs DMSO): 0.009 | USP2 ΔΔCT (vs DMSO): 0.013 | USPS4 ΔΔCT (vs DMSO): −0.274 | VDR ΔΔCT (vs DMSO): −0.547 | VLDLR ΔΔCT (vs DMSO): 0.499 | ZFP36 ΔΔCT (vs DMSO): 0.243 | ZHX3 ΔΔCT (vs DMSO): −0.156 | ZNF281 ΔΔCT (vs DMSO): −0.092
